Assay results reported in patent US20240158446A1, “CYCLIC COMPOUND HAVING SELECTIVE INHIBITORY ACTION ON KRAS OVER HRAS AND NRAS” (CHUGAI SEIYAKU KABUSHIKI KAISHA, priority 2021, published 2024).
Read-outs that look alike come from different tables or passages of the source.

Assays:
[1] = molecular target: GDP-bound KRAS wild-type protein (Homo sapiens, UniProt P01116); test: Binding to KRAS by surface plasmon resonance (SPR), Single Cycle Kinetics
[2] = molecular target: GDP-bound NRAS wild-type protein (Homo sapiens, UniProt P01111); test: Binding to NRAS by surface plasmon resonance (SPR), Single Cycle Kinetics; details: for NRAS/KRAS (ratio of KD value for NRAS to KD value for KRAS): GDP-bound NRAS wild-type protein vs GDP-bound KRAS wild-type protein
Sequence of GDP-bound NRAS wild-type protein (P01111 whole entry): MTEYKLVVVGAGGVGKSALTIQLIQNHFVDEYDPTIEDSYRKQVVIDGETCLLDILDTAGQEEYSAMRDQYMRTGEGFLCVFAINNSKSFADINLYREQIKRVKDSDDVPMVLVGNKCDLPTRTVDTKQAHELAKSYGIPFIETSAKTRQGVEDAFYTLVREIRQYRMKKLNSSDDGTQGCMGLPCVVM

[3] = molecular target: GDP-bound HRAS wild-type protein (Homo sapiens, UniProt P01112); test: Binding to HRAS by surface plasmon resonance (SPR), Single Cycle Kinetics; details: for HRAS/KRAS (ratio of KD value for HRAS to KD value for KRAS): GDP-bound HRAS wild-type protein vs GDP-bound KRAS wild-type protein
Sequence of GDP-bound HRAS wild-type protein (P01112 whole entry): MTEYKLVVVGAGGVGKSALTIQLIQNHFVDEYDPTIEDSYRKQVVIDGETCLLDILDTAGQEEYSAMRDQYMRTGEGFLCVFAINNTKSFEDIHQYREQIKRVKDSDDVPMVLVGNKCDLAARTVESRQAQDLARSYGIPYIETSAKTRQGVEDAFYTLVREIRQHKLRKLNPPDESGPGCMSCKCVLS

[4] = system: human lung cancer strain NCI-H441;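 also: cell proliferation inhibition after four days measured by CellTiter-Glo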
[5] = SPR, Single Cycle Kinetics, 1:1 binding model, GDP-bound KRAS wild-type protein, read-out: KRAS KD
[6] = SPR, Single Cycle Kinetics, GDP-bound KRAS wild-type protein, read-out: KRAS KD

Sequence of GDP-bound KRAS wild-type protein (P01116 whole entry): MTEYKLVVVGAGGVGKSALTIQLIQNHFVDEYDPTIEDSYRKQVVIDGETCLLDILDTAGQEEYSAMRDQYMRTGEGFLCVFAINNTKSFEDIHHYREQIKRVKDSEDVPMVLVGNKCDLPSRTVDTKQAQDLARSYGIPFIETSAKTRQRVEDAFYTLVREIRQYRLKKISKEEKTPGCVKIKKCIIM

Compound | NRAS/KRAS (ratio of KD value for NRAS to KD value for KRAS) ([2]; SPR) | HRAS/KRAS (ratio of KD value for HRAS to KD value for KRAS) ([3]; SPR) | Kd [1, 5] | NRAS/KRAS (ratio of KD value for NRAS to KD value for KRAS) ([2]; SPR, KD ratio class) | HRAS/KRAS (ratio of KD value for HRAS to KD value for KRAS) ([3]; SPR, KD ratio class) | IC50 [4] | Kd [1, 6] | also measured
CC[C@H](C)[C@@H]1NC(=O)[C@@H]2CCCCc3ccc(cc3)C[C@@H](C(=O)N(C)CC(=O)N[C@@H](CCc3ccc(C(F)(F)F)c(OC)c3)C(=O)N3CC4(CC4)C[C@H]3C(=O)NC3(CC(C)(C)C3)C(=O)N(C)[C@@H](C3CCCC3)C(=O)N(C)[C@H](C(=O)N(C)CC)CC(=O)N2C)N2CC/C=C\C[C@@H](C2=O)N(C)C(=O)CN(C)C1=O [PP3081] | A (a compound having 10 or more and less than 20 is denoted as A) | B (a compound having 3 or more and less than 10 is denoted as B) |  |  |  |  |  | Kd ([1]; SPR, Single Cycle Kinetics, 1:1 binding model, read-out: KD value with respect to GDP-bound KRAS wild-type protein): 0.068 nM; ratio of the KD value with respect to GDP-bound NRAS wild-type protein to the KD value with respect to KRAS ([2]; SPR, KD(NRAS)/KD(KRAS)): A (a compound having 10 or more and less than 20 is denoted as A); ratio of the KD value with respect to GDP-bound HRAS wild-type protein to the KD value with respect to KRAS ([3]; SPR, KD(HRAS)/KD(KRAS)): B (a compound having 3 or more and less than 10 is denoted as B); IC50 ([4]; read-out: NCI-H441 cell proliferation inhibitory activity, 50% proliferation inhibitory concentration (IC50 value), NCI-H441, four days, CellTiter-Glo): 1.9 nM
CC[C@H](C)[C@@H]1NC(=O)[C@H](CC)N(C)C(=O)C[C@@H](C(=O)N2CCOCC2)N(C)C(=O)[C@H](C2CCCC2)N(C)C(=O)C2(CCCC2)NC(=O)[C@@H]2CCCN2C(=O)[C@H](CCc2cc(F)c(C(F)(F)F)c(F)c2)NC(=O)CN(C)C(=O)[C@H](Cc2ccc(C(F)(F)F)cc2)N2C[C@H](C)CC[C@@H](C2=O)N(C)C(=O)CN(C)C1=O [PP1383] |  |  | 0.17 nM | B (a compound having 3 or more and less than 10 is denoted as B) | B (a compound having 3 or more and less than 10 is denoted as B) | 11.2 nM |  | 
CCO[C@@H]1C[C@H]2C(=O)NC3(CCC3)C(=O)N(C)[C@@H](C3CCCC3)C(=O)N(C)[C@H](C(=O)N3CCOCC3)CC(=O)N(C)[C@@H](CC)C(=O)N[C@@H]([C@@H](C)CC)C(=O)N(C)CC(=O)N(C)[C@H]3CC[C@@H](C)CN(C3=O)[C@@H](Cc3ccc(C(F)(F)F)cc3)C(=O)N(C)CC(=O)N[C@@H](CCc3ccc(C(F)(F)F)c(Cl)c3)C(=O)N2C1 [PP1378] |  |  | 0.081 nM | B (a compound having 3 or more and less than 10 is denoted as B) | C (A compound having a KD ratio of 0.1 or more and less than 3 is denoted as C) | 6.6 nM |  | 
CCO[C@@H]1C[C@H]2C(=O)NC3(CCC3)C(=O)N(C)[C@@H](C3CCCC3)C(=O)N(C)[C@H](C(=O)N3CCOCC3)CC(=O)N(C)[C@@H](CCOC)C(=O)N[C@@H]([C@@H](C)CC)C(=O)N(C)CC(=O)N(C)[C@H]3CCCCCN(C3=O)[C@@H](Cc3ccc(F)cc3)C(=O)N(C)CC(=O)N[C@@H](CCc3cc(F)c(C(F)(F)F)c(F)c3)C(=O)N2C1 [PP1180] | B (a compound having 3 or more and less than 10 is denoted as B) | B (a compound having 3 or more and less than 10 is denoted as B) |  |  |  | 46.9 nM | 0.17 nM | 
CCO[C@@H]1C[C@H]2C(=O)NC3(CC(C)(C)C3)C(=O)N(C)[C@@H](C(CC)CC)C(=O)N(C)[C@H](C(=O)N(C)C)CC(=O)N(C)[C@@H](CC3CC3)C(=O)N[C@@H]([C@@H](C)CC)C(=O)N(C)CC(=O)N(C)[C@H]3C/C=C\CCN(C3=O)[C@@H](CC3CCC(F)(F)CC3)C(=O)N(C)CC(=O)N[C@@H](CCc3ccc(C(F)(F)F)c(OC)c3)C(=O)N2C1 [PP2480] | A (a compound having 10 or more and less than 20 is denoted as A) | A (a compound having 10 or more and less than 20 is denoted as A) |  |  |  | 30.5 nM | 0.84 nM | 
CCCOC[C@H]1C(=O)N[C@@H]([C@@H](C)CC)C(=O)N(C)CC(=O)N(C)[C@H]2C/C=C\CCN(C2=O)[C@@H](Cc2ccc(C)cc2)C(=O)N(C)CC(=O)N[C@@H](CCc2ccc(Cl)c(Cl)c2)C(=O)N2C[C@H](OCC)C[C@H]2C(=O)NC2(CC(C)(C)C2)C(=O)N(C)[C@@H](CC(C)(C)C)C(=O)N(C)[C@H](C(=O)N(C)C)CC(=O)N1C [PP2716] |  |  |  |  |  | 13.8 nM |  | Kd ([1]; SPR Single Cycle Kinetics, GDP-bound KRAS wild-type protein, 1:1 binding model, read-out: KRAS KD): 0.34 nM; NRAS/KRAS (ratio of KD value with respect to GDP-bound NRAS wild-type protein to KD value with respect to KRAS) ([2]; SPR KD ratio NRAS/KRAS, class symbols): A (a compound having 10 or more and less than 20 is denoted as A); HRAS/KRAS (ratio of KD value with respect to GDP-bound HRAS wild-type protein to KD value with respect to KRAS) ([3]; SPR KD ratio HRAS/KRAS, class symbols): A (a compound having 10 or more and less than 20 is denoted as A)
CCO[C@@H]1C[C@H]2C(=O)NC3(CCC3)C(=O)N(C)[C@@H](C3CCCC3)C(=O)N(C)[C@H](C(=O)N3CCOCC3)CC(=O)N(C)[C@@H](CC)C(=O)N[C@@H]([C@@H](C)CC)C(=O)N(C)CC(=O)N(C)[C@H]3C/C=C\CCN(C3=O)[C@@H](Cc3ccc(C(F)(F)F)cc3)C(=O)N(C)CC(=O)N[C@@H](CCc3ccc(C(F)(F)F)c(Cl)c3)C(=O)N2C1 [PP1281, (2S,8S,12R,14S,20S,23S,27S,30S,36S,38Z)-8-[2-[3-chloro-4-(trifluoromethyl)phenyl]ethyl]-20-cyclopentyl-12-ethoxy-27-ethyl-4,19,22,26,32,35-hexamethyl-30-[(1S)-1-methylpropyl]-23-(morpholine-4-carbonyl)-2-[[4-(trifluoromethyl)phenyl]methyl]spiro[1,4,7,10,16,19,22,26,29,32,35-undecazatricyclo[34.5.1.0^10,14]dotetracont-38-ene-17,1′-cyclobutane]-3,6,9,15,18,21,25,28,31,34,42-undecone] |  |  | 0.14 nM | AA (a compound having 20 or more is denoted as AA) | A (a compound having 10 or more and less than 20 is denoted as A) | 10.2 nM |  | 
CCCOC[C@H]1C(=O)N[C@@H]([C@@H](C)OCC)C(=O)N(C)CC(=O)N(C)[C@H]2C/C=C\CCN(C2=O)[C@@H](Cc2ccc(C)cc2)C(=O)N(C)CC(=O)N[C@@H](CCc2cc(F)c(C(F)(F)F)c(F)c2)C(=O)N2C[C@@H](C)C[C@H]2C(=O)NC2(CC(C)(C)C2)C(=O)N(C)[C@@H](C2CCCC2)C(=O)N(C)[C@H](C(=O)N(C)CC)CC(=O)N1C [PP2424] | A (a compound having 10 or more and less than 20 is denoted as A) | A (a compound having 10 or more and less than 20 is denoted as A) |  |  |  | 50.9 nM | 0.37 nM | 
CCC(CC)[C@H]1C(=O)N(C)[C@H](C(=O)N(C)C)CC(=O)N(C)[C@@H](COC)C(=O)N[C@@H]([C@@H](C)CC)C(=O)N(C)CC(=O)N(C)[C@H]2C/C=C\CCN(C2=O)[C@@H](CC2CCC(F)(F)CC2)C(=O)N(C)CC(=O)N[C@@H](CCc2cc(F)c(C(F)(F)F)c(F)c2)C(=O)N2C[C@@H](C)C[C@H]2C(=O)NC2(CC(C)(C)C2)C(=O)N1C [PP2448] | A (a compound having 10 or more and less than 20 is denoted as A) | A (a compound having 10 or more and less than 20 is denoted as A) |  |  |  | 26.9 nM | 1.4 nM | 
